Consider 11 molecules from PubChem BioAssay (NCI).

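Five concentrations, 48 hours, 96-well plates. Abbreviation: GI50, concentration required for 50% inhibition of growth. TGI marks complete inhibition of growth.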

Test systems include K-562 leukemia; OVCAR-3 ovarian; OVCAR-5 ovarian; OVCAR-8 ovarian; SF-539 CNS; SN12C renal; SNB-19 CNS; SNB-75 CNS; TK-10 renal; SK-MEL-2 melanoma.
What all share (assay): NCI-60 cell line screen, 48 h

Consider `O=c1cc(-c2cccc(O)c2)[nH]c2cc3c(cc12)OCO3`, for which the TGI with K-562 leukemia is greater than 100 µM; in the test on OVCAR-3 ovarian, 0.386 µM; in the test on OVCAR-5 ovarian, greater than 100 µM; in the test with OVCAR-8 ovarian, greater than 29.7 µM; with SF-539 CNS, 4.39 µM; with SN12C renal it was greater than 78 µM. Further, the TGI in the test on SNB-19 CNS was greater than 49.6 µM; in the test on SNB-75 CNS, 20.5 µM; in the test on TK-10 renal, greater than 100 µM.
For `COc1ccc(C2=CSc3cc(Cl)c(C)cc3S(=O)(=O)N2C(C)=O)cc1`, the GI50 in the test with K-562 leukemia is 27.8 µM; in the test on OVCAR-3 ovarian, 15.8 µM; with OVCAR-5 ovarian, 52.7 µM; with OVCAR-8 ovarian, 33.8 µM; in the test on SF-539 CNS, 33 µM; in the test with SK-MEL-2 melanoma, 63.4 µM. The figures for the GI50 in the test with SN12C renal, in the test on SNB-19 CNS and in the test with TK-10 renal were 13.7 µM, 36.3 µM and 17.8 µM, respectively. The TGI is greater than 100 µM in the test on K-562 leukemia; 41.4 µM in the test on OVCAR-3 ovarian; greater than 100 µM in the test with OVCAR-5 ovarian; greater than 100 µM in the test on OVCAR-8 ovarian; 78.6 µM in the test on SF-539 CNS; greater than 100 µM in the test with SK-MEL-2 melanoma. Further, the TGI with SN12C renal is 41.7 µM; with SNB-19 CNS it was greater than 100 µM; with TK-10 renal, 46.7 µM.
As to `Oc1ccc(Cl)cc1-c1cc(-c2ccccc2Cl)[nH]n1`, the GI50 was 4.59 µM in the test with K-562 leukemia; 2.37 µM in the test on OVCAR-3 ovarian; 8.88 µM in the test on OVCAR-5 ovarian; 7.13 µM in the test with OVCAR-8 ovarian; 6.32 µM in the test on SN12C renal; greater than 100 µM in the test with SNB-19 CNS. Also, the GI50 was 2.77 µM in the test on SNB-75 CNS and 29.4 µM in the test on TK-10 renal. For the same molecule, the TGI in the test on K-562 leukemia, with OVCAR-3 ovarian, with OVCAR-5 ovarian, in the test on OVCAR-8 ovarian, in the test with SN12C renal and with SNB-19 CNS was greater than 100 µM throughout. For the same molecule, the TGI in the test with SNB-75 CNS and with TK-10 renal was greater than 100 µM throughout.
Turning to `CNC(=O)c1cc(Oc2ccc3nc(NC(=O)Nc4ccc(Cl)c(C(F)(F)F)c4)sc3c2)ccn1`, the GI50 is 2.46 µM in the test on OVCAR-5 ovarian; 2.34 µM in the test on OVCAR-8 ovarian; 5.69 µM with SK-MEL-2 melanoma; 2.44 µM with SN12C renal; 2.77 µM in the test with SNB-19 CNS; 1.52 µM in the test with SNB-75 CNS. Besides, in the test with TK-10 renal, the GI50 is 2.29 µM. The TGI in the test on OVCAR-5 ovarian was 7.55 µM; with OVCAR-8 ovarian, 5.25 µM; in the test on SK-MEL-2 melanoma it was 47 µM; with SN12C renal, greater than 100 µM; in the test on SNB-19 CNS, 10.2 µM; with SNB-75 CNS, 3.24 µM. This molecule also yielded a TGI in the test on TK-10 renal of 4.62 µM.
`CC(=O)OC1COC(n2c(=S)n(-c3ccc(C)cc3)c(=O)c3ccccc32)C(OC(C)=O)C1OC(C)=O` (centres undefined): the TGI in the test with OVCAR-3 ovarian, in the test on OVCAR-5 ovarian, in the test on OVCAR-8 ovarian, in the test with SF-539 CNS, with SK-MEL-2 melanoma and in the test on SN12C renal was greater than 100 µM each time. The TGI in the test with SNB-19 CNS and in the test on SNB-75 CNS was greater than 100 µM each time.
As to `CCOC(=O)COc1cccc2c1C(=O)CCO2`, the TGI in the test on K-562 leukemia, in the test with OVCAR-3 ovarian, in the test on OVCAR-5 ovarian, in the test on OVCAR-8 ovarian, in the test with SF-539 CNS and in the test on SK-MEL-2 melanoma was greater than 100 µM in each case. The TGI with SN12C renal, in the test on SNB-19 CNS and in the test on TK-10 renal was greater than 100 µM each time.
For `Clc1cccc(Cc2cn3cc(-c4ccccc4)nc3s2)c1Cl`, the GI50 in the test with K-562 leukemia is greater than 100 µM; with OVCAR-3 ovarian it was 37.9 µM; with OVCAR-5 ovarian it was greater than 100 µM; in the test with OVCAR-8 ovarian, 23.5 µM; in the test on SF-539 CNS, 43.3 µM; with SK-MEL-2 melanoma it was 22.3 µM. Moreover, the GI50 was greater than 100 µM in the test on SN12C renal, 24.4 µM in the test on SNB-19 CNS and 26.1 µM with TK-10 renal. Moreover, the TGI in the test with K-562 leukemia was greater than 100 µM; in the test with OVCAR-3 ovarian, greater than 100 µM; in the test on OVCAR-5 ovarian, greater than 100 µM; with OVCAR-8 ovarian it was greater than 100 µM; in the test on SF-539 CNS, greater than 100 µM; with SK-MEL-2 melanoma, 80.8 µM. Besides, the TGI in the test on SN12C renal, in the test on SNB-19 CNS and in the test with TK-10 renal was greater than 100 µM throughout.
On to `CCN(CC)CC(C(=O)Nc1c(C)cccc1C)/C(C)=N\NC(=O)C[N+](C)(C)C` (centres undefined), for which the TGI with K-562 leukemia, with OVCAR-3 ovarian, in the test with OVCAR-5 ovarian, in the test with OVCAR-8 ovarian, in the test with SF-539 CNS and in the test on SN12C renal was greater than 100 µM each time. Also, the TGI in the test with SNB-19 CNS, in the test on SNB-75 CNS and in the test on TK-10 renal was greater than 100 µM each time.
On to `Cc1cc2nc(C(Cl)Cl)nc(-c3ccc(Cl)cc3)n2n1`, for which the GI50 in the test with K-562 leukemia was 1.39 µM; in the test on OVCAR-3 ovarian, 0.491 µM; in the test on OVCAR-5 ovarian, 1.85 µM; in the test on OVCAR-8 ovarian it was 0.964 µM; with SN12C renal it was 2.64 µM; in the test on SNB-19 CNS, 1.05 µM. For the same molecule, the GI50 in the test on SNB-75 CNS is 1.1 µM; in the test on TK-10 renal it was 1.85 µM. Besides, the TGI in the test on K-562 leukemia was greater than 28.5 µM; in the test on OVCAR-3 ovarian, 1.87 µM; with OVCAR-5 ovarian it was 5.56 µM; in the test on OVCAR-8 ovarian, greater than 100 µM; in the test with SN12C renal, greater than 100 µM; in the test on SNB-19 CNS, 4.64 µM. The TGI in the test with SNB-75 CNS worked out at 4.34 µM; in the test with TK-10 renal it was 5.21 µM.
For `O=C(CSC(=S)N1CCCCC1)Nc1nc2c(s1)CCCC2`, the TGI with OVCAR-5 ovarian, with OVCAR-8 ovarian, with SF-539 CNS, in the test with SK-MEL-2 melanoma, in the test on SN12C renal and with SNB-19 CNS was greater than 100 µM each time. Besides, the TGI with SNB-75 CNS and in the test with TK-10 renal was greater than 100 µM in each case.
For the molecule `CCOC(=O)C1=C(C)CC2C(=O)OC(=O)C2C1(C)C` (centres undefined), the TGI in the test on K-562 leukemia, in the test on OVCAR-3 ovarian, in the test with OVCAR-5 ovarian, in the test with OVCAR-8 ovarian, in the test on SF-539 CNS and in the test with SK-MEL-2 melanoma was greater than 100 µM in each case. Also, the TGI in the test on SN12C renal, with SNB-19 CNS and with TK-10 renal was greater than 100 µM each time.
